Data set [1] has as its target T1, full-length human HDAC11 (Homo sapiens (Human), UniProt Q96DB2). Put plainly: HDAC11 deacetylase electrophoretic mobility shift assay (Nanosyn). The note with it: for IC50: mobility shift assay; for HDAC11 potency, in words: comparison with parent or lead compound. The data set is classed as biochemical. As to the method: The measurement of HD AC 11 deacetylase activity was performed using an electrophoretic mobility shift assay by Nanosyn (Santa Clara, Calif.). Full length human recombinant HD AC 11 protein was expressed in baculoviral system and purified by affinity chromatography. The enzymatic reactions were assembled in 384 well plates in a total volume of 25 μL in a reaction buffer composing: 100 mM HEPES, pH 7.5, 25 mM KCl, 0.1% bovine serum albumin, 0.01% Triton X-100, 1% DMSO (from compounds), 2 μM of the fluorescently labeled peptide substrate and enzyme. The enzyme was added at a final concentration of 10 nM. The peptide substrate FAM-RHKK(tri-fluor-Ac)—NH2 was used. The compounds were tested at 12 concentrations spaced by 3× dilution intervals. Negative control samples (0%-inhibition in the absence of inhibitor) and positive control samples (100%-inhibition) were assembled in replicates of four in each assay plate. The reactions were incubated at 25° C. and quenched by the addition of 45 μL of termination buffer (100 mM HEPES, pH 7.5, 0.01% Triton X-100, 0.05% SDS).
The terminated assay plates were analyzed on LabChip® 3000 microfluidic electrophoresis instrument (Perkin Elmer/Caliper Life Sciences). The fluorescence intensity of the electrophoretically separated de-acetylated product and substrate peptide was measured. Activity in each sample was determined as the product to sum ratio (PSR): P/(S+P), where P is the peak height of the product peptide and S is the peak height of the substrate peptide. Percent inhibition (Pinh) is determined using the following equation: Pinh=(PSR0%−PSRinh)/(PSR0%−PSR100%)*100, where PSRinh, is the product sum ratio in the presence of inhibitor, PSR0% is the average product sum ration in the absence of inhibitor and PSR100% is the average product sum ratio in 100%-inhibition control samples. The IC50 values of inhibitors were determined by fitting the percent inhibition curves with 4 parameter dose-response model using XLfit 4 software.
Background: Mobility shift assays separate free from complexed probe on a gel.

The next data set concerns the target HDAC6 (Homo sapiens (Human), UniProt Q9UBN7). Put plainly: HDAC6 electrophoretic mobility shift assay. The data set is classed as biochemical. The note with it: for IC50: mobility shift assay.
A short description of data set [2]: In vitro intrinsic clearance after incubation with mouse liver microsomes. Format: in vitro ADME. In general terms: Microsomes from liver hold many membrane-bound enzymes, among them those of drug oxidation.
For the next data set, the target named is HDAC11 (Homo sapiens (Human), UniProt Q96DB2). Put plainly: Lipophilic efficiency (pIC50 HDAC11 - clogD7.4).
Chain of HDAC11 (Q96DB2 whole entry): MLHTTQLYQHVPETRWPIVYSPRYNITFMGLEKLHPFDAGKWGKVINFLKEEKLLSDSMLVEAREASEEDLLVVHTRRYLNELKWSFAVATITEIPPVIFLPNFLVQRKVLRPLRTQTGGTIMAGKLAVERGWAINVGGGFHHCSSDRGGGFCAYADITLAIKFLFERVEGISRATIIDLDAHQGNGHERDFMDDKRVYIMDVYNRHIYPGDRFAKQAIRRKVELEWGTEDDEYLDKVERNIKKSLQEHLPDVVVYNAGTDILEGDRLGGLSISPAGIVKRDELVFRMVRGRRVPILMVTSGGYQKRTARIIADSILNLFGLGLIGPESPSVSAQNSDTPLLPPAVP
Data set [3] has as its target T1, full-length human HDAC11. Put plainly: Probe binding HDAC11 time resolved fluorescence (TRF) assay. The note with it: Table 2, read-out: HDAC11 IC50 Range.
Data set [4] in a line: Kinetic solubility at pH 7.4. Format: physicochemical. The note with it: aqueous buffer, kinetic from dmso stock.
The target in data set [5] is HDAC11 fused to Nanoluc luciferase (Homo sapiens (Human), UniProt Q96DB2). Put plainly: BRET target engagement cell assay. On the technique in general: In BRET a luciferase serves as donor, and the signal depends on an acceptor being close.
Chain of HDAC11 fused to Nanoluc luciferase (Q96DB2 whole entry, the tested form may be a part): as the sequence (Q96DB2 whole entry) above
A further data set concerns the target HDAC5 (Homo sapiens (Human), UniProt Q9UQL6). Put plainly: HDAC5 electrophoretic mobility shift assay. The data set is classed as biochemical. The note with it: Table 7, read-out: HDAC IC50, HDAC 5.
In a further data set the target is HDAC7 (Homo sapiens (Human), UniProt Q8WUI4). Put plainly: HDAC7 electrophoretic mobility shift assay. The data set is classed as biochemical. The note with it: Table 7, read-out: HDAC IC50, HDAC 7.
Chain of HDAC7 (Q8WUI4 whole entry): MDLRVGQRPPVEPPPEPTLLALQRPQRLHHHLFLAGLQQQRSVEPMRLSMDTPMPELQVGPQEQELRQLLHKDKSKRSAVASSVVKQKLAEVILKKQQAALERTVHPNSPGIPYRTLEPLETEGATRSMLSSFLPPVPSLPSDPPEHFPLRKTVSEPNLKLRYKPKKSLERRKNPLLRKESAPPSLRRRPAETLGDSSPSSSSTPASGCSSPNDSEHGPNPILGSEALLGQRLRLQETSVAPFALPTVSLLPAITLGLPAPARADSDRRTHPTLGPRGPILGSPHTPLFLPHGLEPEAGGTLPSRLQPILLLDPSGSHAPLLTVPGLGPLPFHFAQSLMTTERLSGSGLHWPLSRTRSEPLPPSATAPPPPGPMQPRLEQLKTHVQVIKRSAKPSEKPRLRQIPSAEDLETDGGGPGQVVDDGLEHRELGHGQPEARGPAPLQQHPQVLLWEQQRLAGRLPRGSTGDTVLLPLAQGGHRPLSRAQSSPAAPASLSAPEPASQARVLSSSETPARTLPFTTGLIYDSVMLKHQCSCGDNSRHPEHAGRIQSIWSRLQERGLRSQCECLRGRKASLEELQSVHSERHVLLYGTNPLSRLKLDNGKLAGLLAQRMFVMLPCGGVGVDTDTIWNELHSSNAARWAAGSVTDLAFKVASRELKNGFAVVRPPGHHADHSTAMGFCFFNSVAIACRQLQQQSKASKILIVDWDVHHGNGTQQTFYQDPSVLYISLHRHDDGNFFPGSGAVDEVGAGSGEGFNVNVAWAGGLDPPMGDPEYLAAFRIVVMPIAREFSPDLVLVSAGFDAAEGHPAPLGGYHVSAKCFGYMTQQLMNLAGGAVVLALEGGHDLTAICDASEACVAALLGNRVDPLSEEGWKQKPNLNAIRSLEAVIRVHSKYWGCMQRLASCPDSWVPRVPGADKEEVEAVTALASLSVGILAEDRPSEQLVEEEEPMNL
The next data set deals with HDAC9 (Homo sapiens (Human), UniProt Q9UKV0). Put plainly: HDAC9 electrophoretic mobility shift assay. Format: biochemical. The note with it: Table 7, read-out: HDAC IC50, HDAC 9.
Chain of HDAC9 (Q9UKV0 whole entry): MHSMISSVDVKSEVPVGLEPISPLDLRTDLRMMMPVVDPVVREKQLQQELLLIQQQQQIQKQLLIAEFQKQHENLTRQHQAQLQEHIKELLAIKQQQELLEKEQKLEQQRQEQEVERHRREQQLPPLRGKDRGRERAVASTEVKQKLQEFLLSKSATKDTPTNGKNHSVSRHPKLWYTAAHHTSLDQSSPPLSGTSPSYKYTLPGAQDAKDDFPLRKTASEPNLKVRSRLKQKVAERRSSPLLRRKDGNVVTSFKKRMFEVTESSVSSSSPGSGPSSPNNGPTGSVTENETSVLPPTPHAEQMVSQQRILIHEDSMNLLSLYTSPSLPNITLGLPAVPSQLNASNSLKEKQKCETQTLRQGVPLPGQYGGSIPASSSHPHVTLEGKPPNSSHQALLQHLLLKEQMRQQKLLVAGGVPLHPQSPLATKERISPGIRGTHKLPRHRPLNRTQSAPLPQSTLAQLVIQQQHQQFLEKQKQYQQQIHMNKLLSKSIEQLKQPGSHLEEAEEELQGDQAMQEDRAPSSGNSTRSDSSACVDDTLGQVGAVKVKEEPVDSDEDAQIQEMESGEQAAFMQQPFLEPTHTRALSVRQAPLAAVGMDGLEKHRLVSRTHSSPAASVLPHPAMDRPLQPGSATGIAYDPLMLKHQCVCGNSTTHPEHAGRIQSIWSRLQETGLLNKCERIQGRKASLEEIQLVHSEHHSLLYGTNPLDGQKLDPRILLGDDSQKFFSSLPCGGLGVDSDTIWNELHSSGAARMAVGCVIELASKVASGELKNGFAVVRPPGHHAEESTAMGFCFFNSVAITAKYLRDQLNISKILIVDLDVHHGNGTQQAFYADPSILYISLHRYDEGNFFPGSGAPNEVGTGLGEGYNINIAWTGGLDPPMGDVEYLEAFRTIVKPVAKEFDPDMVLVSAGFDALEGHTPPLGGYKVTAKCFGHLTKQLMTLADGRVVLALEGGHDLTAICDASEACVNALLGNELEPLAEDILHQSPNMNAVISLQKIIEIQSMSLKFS
Data set [6] in a line: Mouse pharmacokinetic study (i.v. and i.p.). Format: in vivo. As for the experimental part:
Based on its overall in vitro profile, 22-8 was advanced to mouse PK studies to measure its suitability as an in vivo tool compound. The pharmacokinetic properties of 22-8 were assessed in male Balb/c nude mice following both intravenous (i.v.) and intraperitoneal (i.p.) dosing (Table 8).

Where [7] appears, read: pIC50 HDAC11 - clogD7.4, Table 4.
Setting [8] is: pIC50 HDAC11 - clogD7.4, Table 6.
Where [9] appears, read: read-out: HDAC11 BRET IC50, BRET cell assay, Table 6.
Setting [10] is: IP 5 mg/kg, male Balb/c nude mice.
[11] abbreviates: mouse, in vivo, IP 5 mg/kg, male Balb/c nude mice.
The mark [12] stands for this setting: mouse, in vivo, IV 1 mg/kg, male Balb/c nude mice.

We go through 10 compounds from patent publication US11535607B2, “Isoindolines as HDAC inhibitors” (Valo Health, Inc., priority 2018, dated 2022).

As usually defined, the IC50 is the concentration that inhibits the measured activity by half. A word on the solubility: it is the concentration that dissolves in the medium under given conditions. Higher therefore signals much dissolved substance. Broadly, the AUC(0-t) is the area under the concentration-time curve up to a stated or last time point. By Cmax is commonly meant the peak of the concentration-time curve. The half-life is the time in which the quantity being followed falls by half. Read a high half-life as slow loss.

Values after ≈ are worked out from the molar mass of the structure shown. Like-named read-outs stand apart in the source and are kept apart here.

T1 sequence (Q96DB2 whole entry): as the sequence (Q96DB2 whole entry) above
Chain of HDAC6 (Q9UBN7 whole entry, species assumed): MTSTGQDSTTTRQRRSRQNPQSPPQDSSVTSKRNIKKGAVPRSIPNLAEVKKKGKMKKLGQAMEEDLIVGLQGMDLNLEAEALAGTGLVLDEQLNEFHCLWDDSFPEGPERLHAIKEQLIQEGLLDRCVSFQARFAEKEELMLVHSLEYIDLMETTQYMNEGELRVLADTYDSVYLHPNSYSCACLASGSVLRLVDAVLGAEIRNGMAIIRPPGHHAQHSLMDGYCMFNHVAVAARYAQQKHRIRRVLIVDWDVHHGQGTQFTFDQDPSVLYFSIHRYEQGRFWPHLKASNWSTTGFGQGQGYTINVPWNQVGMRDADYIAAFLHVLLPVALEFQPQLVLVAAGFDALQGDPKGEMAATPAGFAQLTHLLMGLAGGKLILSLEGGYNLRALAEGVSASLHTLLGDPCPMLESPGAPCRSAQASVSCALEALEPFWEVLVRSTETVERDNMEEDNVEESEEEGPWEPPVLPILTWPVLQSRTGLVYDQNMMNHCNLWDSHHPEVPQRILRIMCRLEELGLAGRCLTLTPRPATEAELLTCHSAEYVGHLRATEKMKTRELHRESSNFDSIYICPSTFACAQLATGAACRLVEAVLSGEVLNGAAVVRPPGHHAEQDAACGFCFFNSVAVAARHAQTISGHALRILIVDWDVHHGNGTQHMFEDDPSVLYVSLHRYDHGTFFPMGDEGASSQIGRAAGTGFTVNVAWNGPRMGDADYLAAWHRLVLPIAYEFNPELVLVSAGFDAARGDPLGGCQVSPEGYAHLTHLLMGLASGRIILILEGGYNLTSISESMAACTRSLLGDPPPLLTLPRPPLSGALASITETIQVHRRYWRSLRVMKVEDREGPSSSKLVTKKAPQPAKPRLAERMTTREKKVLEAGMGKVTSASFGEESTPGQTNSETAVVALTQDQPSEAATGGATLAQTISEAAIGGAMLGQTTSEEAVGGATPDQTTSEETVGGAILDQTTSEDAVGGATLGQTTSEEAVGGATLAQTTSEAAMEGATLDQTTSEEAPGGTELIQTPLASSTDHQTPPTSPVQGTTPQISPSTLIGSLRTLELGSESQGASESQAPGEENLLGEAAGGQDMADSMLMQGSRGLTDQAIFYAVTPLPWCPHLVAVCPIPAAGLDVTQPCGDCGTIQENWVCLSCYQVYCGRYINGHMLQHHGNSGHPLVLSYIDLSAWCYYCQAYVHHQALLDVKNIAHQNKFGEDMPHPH
Chain of HDAC5 (Q9UQL6 whole entry): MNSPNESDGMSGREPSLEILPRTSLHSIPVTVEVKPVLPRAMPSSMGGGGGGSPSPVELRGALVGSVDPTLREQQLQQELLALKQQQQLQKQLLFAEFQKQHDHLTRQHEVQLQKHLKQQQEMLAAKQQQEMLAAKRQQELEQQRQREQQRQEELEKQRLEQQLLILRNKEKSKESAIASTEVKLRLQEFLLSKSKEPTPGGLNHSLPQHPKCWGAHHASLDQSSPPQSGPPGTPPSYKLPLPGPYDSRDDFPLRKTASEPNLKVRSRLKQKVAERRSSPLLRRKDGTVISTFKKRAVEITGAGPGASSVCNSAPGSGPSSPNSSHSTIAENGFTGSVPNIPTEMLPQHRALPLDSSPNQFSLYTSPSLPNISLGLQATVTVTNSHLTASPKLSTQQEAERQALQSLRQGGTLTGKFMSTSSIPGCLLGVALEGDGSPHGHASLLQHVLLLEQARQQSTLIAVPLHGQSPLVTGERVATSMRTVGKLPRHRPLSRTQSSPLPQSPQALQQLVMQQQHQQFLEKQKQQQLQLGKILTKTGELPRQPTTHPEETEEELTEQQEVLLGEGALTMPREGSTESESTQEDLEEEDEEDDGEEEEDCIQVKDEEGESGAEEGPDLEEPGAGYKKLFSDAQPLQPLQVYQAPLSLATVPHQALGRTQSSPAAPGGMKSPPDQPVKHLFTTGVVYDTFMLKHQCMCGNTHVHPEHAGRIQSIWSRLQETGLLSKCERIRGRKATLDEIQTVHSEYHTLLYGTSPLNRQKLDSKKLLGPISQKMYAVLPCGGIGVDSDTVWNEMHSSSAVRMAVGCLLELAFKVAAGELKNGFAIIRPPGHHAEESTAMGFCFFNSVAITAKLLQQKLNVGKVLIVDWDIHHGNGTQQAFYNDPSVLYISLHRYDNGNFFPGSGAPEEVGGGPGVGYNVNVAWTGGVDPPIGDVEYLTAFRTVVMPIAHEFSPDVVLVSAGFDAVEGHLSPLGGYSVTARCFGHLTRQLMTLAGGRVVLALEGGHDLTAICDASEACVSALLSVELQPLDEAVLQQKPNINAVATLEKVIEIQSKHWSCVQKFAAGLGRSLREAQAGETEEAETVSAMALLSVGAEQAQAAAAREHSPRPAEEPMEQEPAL

In the case of `O=C(NO)c1cccc2c1CCN(c1nc3ccccc3[nH]1)CC2` [Compound 50-3], the IC50 on full-length human HDAC11 [1] (Table 4, read-out: HDAC11 IC50) was under 500 nM; on HDAC6 (Table 4, read-out: HDAC6 IC50), over 1000 nM. Moreover, the “increase in potency against HDAC11” value at full-length human HDAC11 [1] (relative to the tetrahydroisoquinoline core) is given as over 10 fold. Moreover, the microsomal CLint in data set [2] (Table 4, read-out: m-CL-int) was over 100 µL/min/mg. The LipE result on HDAC11 (setting [7]) was “+ (indicates LipE≤5.5)”.
With `CC1(C)c2cccc(C(=O)NO)c2CN1c1nc2ncccc2o1` [Compound 18-2, N-hydroxy-1,1-dimethyl-2-(oxazolo[4,5-b]pyridin-2-yl)isoindoline-4-carboxamide], the IC50 was under 500 nM on full-length human HDAC11 [3]; under 500 nM at full-length human HDAC11 [1] (Table 6, read-out: HDAC11 IC50); under 500 nM in data set [5] (setting [9]). For the same compound, the microsomal CLint in data set [2] (Table 6) was under 50 µL/min/mg. In addition, the LipE entry on HDAC11 (setting [8]) is listed as “+++ (indicates a LipE>6.5)”. Besides, the solubility in data set [4] was over 55 µM.
`CC1(C)c2cccc(C(=O)NO)c2CN1c1ccc(C(F)(F)F)cn1` [Compound 22-2, N-hydroxy-1,1-dimethyl-2-(5-(trifluoromethyl)pyridin-2-yl)isoindoline-4-carboxamide]: the 50% inhibitory concentration (IC50) at full-length human HDAC11 [3] is under 500 nM; on full-length human HDAC11 [1] (Table 6, read-out: HDAC11 IC50), under 500 nM; in [5] (setting [9]), under 500 nM. For the same compound, the microsomal CLint in [2] (Table 6) is under 50 µL/min/mg. In addition, the LipE result at HDAC11 (setting [8]) is “++ (indicates 5.5<LipE≤6.5)”. The same compound showed a solubility in data set [4] of at most 30 µM.
Turning to `CC1(C)c2cccc(C(=O)NO)c2CN1c1ccc(C(F)(F)F)nc1` [Compound 22-3, N-hydroxy-1,1-dimethyl-2-(6-(trifluoromethyl)pyridin-3-yl)isoindoline-4-carboxamide], the IC50 at full-length human HDAC11 [3] is under 500 nM; at full-length human HDAC11 [1] (Table 6, read-out: HDAC11 IC50), under 500 nM; in data set [5], under 20 nM; in data set [5] (setting [9]) it was under 500 nM. In data set [2] (Table 6), this compound yielded a microsomal CLint of under 50 µL/min/mg. Moreover, the LipE entry on HDAC11 (setting [8]) was “++ (indicates 5.5<LipE≤6.5)”. The compound further showed a solubility in data set [4] of 30 to 55 µM (≈ 10.5 to 19.3 µg/mL).
For `CC1(C)c2cccc(C(=O)NO)c2CN1c1nc2cc(C(F)(F)F)ccc2o1` [Compound 18-1, N-hydroxy-1,1-dimethyl-2-[5-(trifluoromethyl)-1,3-benzoxazol-2-yl]-2,3-dihydro-1H-isoindole-4-carboxamide], the IC50 on full-length human HDAC11 [3] is under 500 nM; at full-length human HDAC11 [1] (Table 6, read-out: HDAC11 IC50) it was under 500 nM. Further, the microsomal CLint in data set [2] (Table 6) is under 50 µL/min/mg. Moreover, the LipE entry on HDAC11 (setting [8]) is listed as “++ (indicates 5.5<LipE≤6.5)”. The solubility in [4] is at most 30 µM.
In the case of `CC1(C)c2cccc(C(=O)NO)c2CN1c1cnc(C(F)(F)F)cn1` [Compound 22-8, N-Hydroxy-1,1-dimethyl-2-(5-(trifluoromethyl)pyrazin-2-yl)isoindoline-4-carboxamide], the IC50 on HDAC5 is over 1000 nM. The IC50 on HDAC7 was over 1000 nM. At HDAC9, the 50% inhibitory concentration (IC50) was over 1000 nM. Besides, the microsomal CLint in data set [2] (Table 6) is under 50 µL/min/mg. In data set [4], this compound had a solubility of 30 to 55 µM (≈ 10.6 to 19.4 µg/mL). In [6] (setting [10]), this compound showed a Bioavailability of 81 % F and a t1/2 of 10.2 h. This compound displayed a t1/2 in data set [6] (IV 1 mg/kg, male Balb/c nude mice) of 9.4 h. In data set [6] (setting [11]), this compound showed an AUC(0-t) of 3.8 µM·h, a Cmax of 4.2 µM and a half-life of 10.2 h. In data set [6] (setting [12]), this compound gave an AUC(0-t) of 1 µM·h, a C0 of 3.5 µM, a clearance of 42 mL/min/kg and a half-life of 9.4 h. The Vd in data set [6] (mouse, in vivo, IV 1 mg/kg, male Balb/c nude mice, read-out: Vss) was 18 L/kg. Besides, the “time free drug levels maintained over the cellular IC50” value in [6] (single 5 mg/kg i.p. dose, mice) is given as “up to 4 h”.
Take `O=C(NO)c1cccc2c1CCN(c1nc3ccccc3[nH]1)C2` [Compound 50-2]: the “HDAC11 potency, in words” value at full-length human HDAC11 [1] was “only modest HDAC11 activity”. The IC50 at full-length human HDAC11 [1] (Table 3, mean of at least two runs, read-out: HDAC 11 IC50) is 510 to 2000 nM; at full-length human HDAC11 [1] (Table 4, read-out: HDAC11 IC50) it was over 1000 nM; on HDAC6 (Table 3, mean of at least two runs, read-out: HDAC 6 IC50) it was over 2000 nM; on HDAC6 (Table 4, read-out: HDAC6 IC50) it was over 1000 nM. For the same compound, the “HDAC6 potency, in words” value at HDAC6 (text comparison with lead 50-4) is on record as “no significant HDAC6 potency”. Moreover, the microsomal CLint in data set [2] (Table 4, read-out: m-CL-int) was under 50 µL/min/mg. In addition, at HDAC11 (setting [7]), the LipE result was “+ (indicates LipE≤5.5)”.
As to `CC1(C)c2cccc(C(=O)NO)c2CN1c1cnc(C(F)(F)F)nc1` [Compound 22-7, N-hydroxy-1,1-dimethyl-2-(2-(trifluoromethyl)pyrimidin-5-yl)isoindoline-4-carboxamide], the IC50 on full-length human HDAC11 [3] is under 500 nM; on full-length human HDAC11 [1] (Table 6, read-out: HDAC11 IC50), under 500 nM; in data set [5] (setting [9]), under 500 nM. In data set [2] (Table 6), this compound showed a microsomal CLint of under 50 µL/min/mg. Further, the LipE result at HDAC11 (setting [8]) is listed as “++ (indicates 5.5<LipE≤6.5)”. For the same compound, the solubility in [4] is over 55 µM.
As for `CC1(C)c2cccc(C(=O)NO)c2CN1c1ncc(C(F)(F)F)cn1` [Compound 22-6, N-hydroxy-1,1-dimethyl-2-(5-(trifluoromethyl)pyrimidin-2-yl)isoindoline-4-carboxamide], the IC50 on full-length human HDAC11 [3] is under 500 nM; at full-length human HDAC11 [1] (Table 6, read-out: HDAC11 IC50) it was under 500 nM; in [5] (setting [9]) it was under 500 nM. Moreover, in [2] (Table 6), the microsomal CLint was under 50 µL/min/mg. Further, on HDAC11 (setting [8]), the LipE entry is “++ (indicates 5.5<LipE≤6.5)”. The solubility in data set [4] fell in the range of 30 to 55 µM (≈ 10.6 to 19.4 µg/mL).
Turning to `CC1(C)c2cccc(C(=O)NO)c2CN1c1nc2ccc(C(F)(F)F)cc2[nH]1` [Compound 17-1, N-hydroxy-1,1-dimethyl-2-(6-(trifluoromethyl)-1H-benzo[d]imidazol-2-yl)isoindoline-4-carboxamide], the IC50 at full-length human HDAC11 [3] is under 500 nM; at full-length human HDAC11 [1] (Table 6, read-out: HDAC11 IC50), under 500 nM. In addition, the “HDAC11 potency, in words” value at full-length human HDAC11 [1] was “retained the potency”. This compound registered a microsomal CLint in data set [2] (Table 6) of under 50 µL/min/mg. The “microsomal stability, in words” value in data set [2] (comparison) is “significant increase in stability”. For the same compound, the LipE entry on HDAC11 (setting [8]) is given as “++ (indicates 5.5<LipE≤6.5)”. The compound also registered a solubility in [4] of 30 to 55 µM (≈ 11.7 to 21.5 µg/mL).
